ChEMBL document CHEMBL1201862, “PubChem BioAssay data set” (2004)
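Grown in 96-well plates, cells were treated for 48 hours with each compound at five concentrations. Insufficient inhibition: endpoint recorded as highest concentration tested. GI50 is the concentration that inhibits growth by half.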 Active and inactive are the calls of the source. Cut-off read from the data, not from the text of the source: active = GI50 up to about 1.1 µM and inactive = higher.

How the values were obtained:
Experiment in all cases: NCI anticancer screen, dose series, 48 h
IGROV-1 = tested on: IGROV-1
SNB-19 = tested on: SNB-19
UO-31 = tested on: UO-31
Hs-578T = tested on: Hs-578T
MDA-MB-435 = tested on: MDA-MB-435
MOLT-4 = tested on: MOLT-4
SK-MEL-5 = tested on: SK-MEL-5
MDA-N = tested on: MDA-N
DU-145 = tested on: DU-145
A549 = tested on: A549
COLO 205 = tested on: COLO 205
SW-620 = tested on: SW-620
HOP-62 = tested on: HOP-62
SK-OV-3 = tested on: SK-OV-3
U-251 = tested on: U-251
CCRF-CEM = tested on: CCRF-CEM
MDA-MB-231 = tested on: MDA-MB-231
UACC-257 = tested on: UACC-257
HT-29 = tested on: HT-29
ACHN = tested on: ACHN
NCI-H460 = tested on: NCI-H460
HCC 2998 = tested on: HCC 2998
M14 = tested on: M14
SN12C = tested on: SN12C
RXF 393 = tested on: RXF 393
OVCAR-3 = tested on: OVCAR-3
UACC-62 = tested on: UACC-62
T47D = tested on: T47D
K562 = tested on: K562
SF-539 = tested on: SF-539
SNB-75 = tested on: SNB-75
SK-MEL-2 = tested on: SK-MEL-2
EKVX = tested on: EKVX
PC-3 = tested on: PC-3
MCF7 = tested on: MCF7
CAKI-1 = tested on: CAKI-1
SF-268 = tested on: SF-268
NCI-H226 = tested on: NCI-H226
SF-295 = tested on: SF-295
NCI-H23 = tested on: NCI-H23
OVCAR-5 = tested on: OVCAR-5
HCT-116 = tested on: HCT-116
TK-10 = tested on: TK-10
OVCAR-4 = tested on: OVCAR-4
RPMI-8226 = tested on: RPMI-8226
OVCAR-8 = tested on: OVCAR-8
HL-60 = tested on: HL-60
HOP-92 = tested on: HOP-92
786-0 = tested on: 786-0
SK-MEL-28 = tested on: SK-MEL-28
SR = tested on: SR
KM12 = tested on: KM12
LOX IMVI = tested on: LOX IMVI
Malme-3M = tested on: Malme-3M
HCT-15 = tested on: HCT-15
NCI/ADR-RES = tested on: NCI/ADR-RES
NCI-H522 = tested on: NCI-H522

Measured: GI50

CC1(C)C=[N+]([O-])C(C)(C)N1
inactive: IGROV-1 > 100 µM | SNB-19 > 100 µM | UO-31 > 100 µM | Hs-578T > 100 µM | MDA-MB-435 > 100 µM | MOLT-4 > 100 µM | SK-MEL-5 > 100 µM | MDA-N > 100 µM | DU-145 > 100 µM | A549 > 100 µM | COLO 205 > 100 µM | SW-620 > 100 µM | HOP-62 > 100 µM | SK-OV-3 > 100 µM | U-251 > 100 µM | CCRF-CEM > 100 µM | MDA-MB-231 > 100 µM | UACC-257 > 100 µM | HT-29 > 100 µM | ACHN > 100 µM | NCI-H460 > 100 µM | HCC 2998 > 100 µM | M14 > 100 µM | SN12C > 100 µM | RXF 393 > 100 µM | OVCAR-3 > 100 µM | UACC-62 > 100 µM | T47D > 100 µM | K562 > 100 µM | SF-539 > 100 µM | SNB-75 > 100 µM | SK-MEL-2 > 100 µM | EKVX > 100 µM | PC-3 > 100 µM | MCF7 > 100 µM | CAKI-1 > 100 µM | SF-268 > 100 µM | NCI-H226 > 100 µM | SF-295 > 100 µM | NCI-H23 > 100 µM | OVCAR-5 > 100 µM | HCT-116 > 100 µM | TK-10 > 100 µM | OVCAR-4 > 100 µM | RPMI-8226 > 100 µM | OVCAR-8 > 100 µM | HL-60 > 100 µM | HOP-92 > 100 µM | 786-0 > 100 µM | SK-MEL-28 > 100 µM | SR > 100 µM | KM12 > 100 µM | LOX IMVI > 100 µM | Malme-3M > 100 µM | NCI/ADR-RES > 100 µM
> 100 µM: HCT-15

NC(CCOCCP(=O)(O)CCOCCC(N)C(=O)O)C(=O)O (stereo unspecified)
inactive: IGROV-1 > 100 µM | SNB-19 > 100 µM | UO-31 > 100 µM | Hs-578T > 100 µM | MDA-MB-435 > 100 µM | MOLT-4 > 100 µM | SK-MEL-5 > 100 µM | DU-145 > 100 µM | A549 > 100 µM | COLO 205 > 100 µM | SW-620 > 100 µM | SK-OV-3 > 100 µM | U-251 > 100 µM | CCRF-CEM > 100 µM | MDA-MB-231 > 100 µM | UACC-257 > 100 µM | HT-29 > 100 µM | ACHN > 100 µM | NCI-H460 > 100 µM | HCC 2998 > 100 µM | M14 > 100 µM | SN12C > 100 µM | RXF 393 > 100 µM | OVCAR-3 > 100 µM | UACC-62 > 100 µM | T47D > 100 µM | K562 > 100 µM | SF-539 > 100 µM | SNB-75 > 100 µM | SK-MEL-2 > 100 µM | NCI-H522 > 100 µM | EKVX > 100 µM | MCF7 > 100 µM | CAKI-1 > 100 µM | SF-268 > 100 µM | SF-295 > 100 µM | NCI-H23 > 100 µM | OVCAR-5 > 100 µM | HCT-116 > 100 µM | TK-10 > 100 µM | OVCAR-4 > 100 µM | RPMI-8226 > 100 µM | OVCAR-8 > 100 µM | HL-60 > 100 µM | HOP-92 > 100 µM | SK-MEL-28 > 100 µM | SR > 100 µM | KM12 > 100 µM | NCI/ADR-RES > 100 µM
> 100 µM: HCT-15
